Assay results as given in US4405619A, “Antiinflammatory substituted-1,2,4-triazolo[4,3-b]-1,2,4-triazines” (Diamond Shamrock Corporation, priority 1981, dated 1983).

Legend:
[1] = system: carrageenin-induced edema; test: Carrageenin-induced edema (antiinflammatory) assay, rat hind paw; assay type: in vivo, rat (Long Evans strain, male); details: for ED50: 3 h, oral, dose which reduced edema formation by about 25% or more vs. mean control response in 50% of the animals; for inhibition in vivo at 200 mg/kg: 200 mg/kg oral
Protocol: The procedure employed is a modification of the method of Winter et al., Proc. Soc. Exptl. Biol. Med., 111:544 (1962). The device used for measurement of the paw volume is an adaptation of the water displacement procedure described by Adamkiewicz et al., Can. J. Biochem. Physiol., 33:332 (1955). Test compounds were administered orally, one hour prior to the intraplanter injection of 0.05 mL. of sterile 1.0% solution of carrageenin into the left hind paw of male rats (Long Evans strain) weighing between about 130-200 g. At peak swelling time (3 hrs.) the volume of edema was calculated by differential paw volumes.
Selected compounds of the invention were further tested to determine their ED50 values. The ED50 value is defined as that dose which reduced edema formation by about 25% or more compared with the mean control response (parallel run) in 50% of the animals. Typical results of these tests appear in Table II.

[2] = system: phenylquinone writhing; test: Phenylquinone writhing test (analgesic assay); assay type: in vivo, mouse (Carworth CF1, male); details: for Phenylquinone Writhing Assay (% Control), percent analgesia, 15 min.: 15 min. after administration; for Phenylquinone Writhing Assay (% Control), percent analgesia, 30 min.: 30 min. after administration; for Phenylquinone Writhing Assay (% Control), percent analgesia, 60 min.: 60 min. after administration
Protocol: Phenylquinone writhing test was employed to evaluate analgesic activity for selected compounds for the present invention according to the following procedure:
Phenylquinone (phenyl-p-benzoquinone, No. 7104, Eastman Organic Chemicals) is made up as a 0.02% aqueous solution and 5% ethyl alcohol. Phenylquinone solutions are made up fresh twice daily. Standard reference agents and the test compounds are dissolved or suspended in a 0.25% methylcellulose solution. A control group consisting of 10 mice (Carworth CF1 male mice) are administered the 0.02% phenylquinone solution at a dose of 0.25 mL./mouse. The mice are housed individually and observed closely for 10 min. for exhibition of writhing. The onset of writhing occurs within 3 min. and 100% of the mice must writh within 10 min. Test compounds are administered orally to groups of 10 mice. The volume given is 0.01 mL. per gram of body weight. Activity can be studied at 15, 30, 60 and 120 min. after oral administration. After the designated time interval of a dose group has elapsed, the mice are challenged with phenylquinone intraperitoneally. Complete blocking of the writhing syndrome for the 10-min. observation period in any one mouse is considered a positive analgesic response for that mouse. Conversely, if any mouse wriths definitely once, it is considered not to be protected. The number of mice not writhing in a group multiplied by 10 equals percent analgesia for that dose at the time interval.

[3] = Rattus norvegicus, 1 hour before carrageenin, edema at peak swelling time (3 hrs.), read-out: % Reduction of Edema

In the case of `Cc1nnc2nc(-c3cccc(Cl)c3)cnn12` [Example 1, 1,2,4-triazolo[4,3-b]-1,2,4-triazine, 3-methyl-7-(3-chlorophenyl)], the ED50 ([1]; Rattus norvegicus) is reported as 30 mg/kg and the inhibition in vivo at 200 mg/kg [1, 3] is reported as 39%.

For `COCc1nnc2nc(-c3ccccc3)cnn12` [Example 2, 1,2,4-triazolo[4,3-b]-1,2,4-triazine, 3-methoxymethyl-7-phenyl], the inhibition in vivo at 200 mg/kg [1, 3] was 26%.

Work on `Oc1nnc2nc(-c3ccccc3)cnn12` [Example 3, 1,2,4-triazolo[4,3-b]-1,2,4-triazine, 3-hydroxy-7-phenyl] yielded an inhibition in vivo at 200 mg/kg [1, 3] of 22%.

In the case of `CC(C)c1nnc2nc(-c3ccccc3)cnn12` [Example 4, 1,2,4-triazolo[4,3-b]-1,2,4-triazine, 3-isopropyl-7-phenyl], the inhibition in vivo at 200 mg/kg [1, 3] is reported as 18%, the “Phenylquinone Writhing Assay (% Control), percent analgesia, 15 min.” value ([2]; 100 mg/kg oral) is reported as 10% and the “Phenylquinone Writhing Assay (% Control), percent analgesia, 30 min.” value ([2]; 100 mg/kg oral) is reported as 20%. The “Phenylquinone Writhing Assay (% Control), percent analgesia, 60 min.” value ([2]; 100 mg/kg oral) was 20%.

In the case of `CCc1nnc2nc(-c3ccccc3)cnn12` [Example 5, 1,2,4-triazolo[4,3-b]-1,2,4-triazine, 3-ethyl-7-phenyl], the ED50 ([1]; Rattus norvegicus) is reported as 100 mg/kg, the inhibition in vivo at 200 mg/kg [1, 3] is reported as 40% and the “Phenylquinone Writhing Assay (% Control), percent analgesia, 15 min.” value ([2]; 100 mg/kg oral) is reported as 30%. The “Phenylquinone Writhing Assay (% Control), percent analgesia, 30 min.” value ([2]; 100 mg/kg oral) was 30% and the “Phenylquinone Writhing Assay (% Control), percent analgesia, 60 min.” value ([2]; 100 mg/kg oral) was 70%.

With `CC(C)c1nnc2nc(-c3ccc(Cl)c(Cl)c3)cnn12` [Example 6, 1,2,4-triazolo[4,3-b]-1,2,4-triazine, 3-isopropyl-7-(3',4'-dichlorophenyl)] the inhibition in vivo at 200 mg/kg [1, 3] was 33%.

In the case of `Clc1ccc(-c2cnn3cnnc3n2)cc1Cl` [Example 7, 1,2,4-triazolo[4,3-b]-1,2,4-triazine, 7-(3',4'-dichlorophenyl)], the ED50 ([1]; Rattus norvegicus) is reported as 1 mg/kg, the inhibition in vivo at 200 mg/kg [1, 3] is reported as 36% and the “Phenylquinone Writhing Assay (% Control), percent analgesia, 15 min.” value ([2]; 100 mg/kg oral) is reported as 30%. For the same compound, the “Phenylquinone Writhing Assay (% Control), percent analgesia, 30 min.” value ([2]; 100 mg/kg oral) was 50% and the “Phenylquinone Writhing Assay (% Control), percent analgesia, 60 min.” value ([2]; 100 mg/kg oral) was 30%.

With `COCc1nnc2nc(-c3ccc(C)cc3)cnn12` [Example 8, 1,2,4-triazolo[4,3-b]-1,2,4-triazine, 3-methoxymethyl-7-(4'-methylphenyl)] the “% Reduction of Edema” value ([1]; 100 mg/kg oral, 1 hour before carrageenin, edema at peak swelling time (3 hrs.)) was 16%.

Compound `Cc1nnc2nc(-c3ccccc3)c(-c3ccccc3)nn12` [Example 9, 1,2,4-triazolo[4,3-b]-1,2,4-triazine, 3-methyl-6,7-diphenyl] has an inhibition in vivo at 200 mg/kg [1, 3] of 35%.

With `Clc1ccc(-c2cnn3cnnc3n2)cc1` [Example 10, 1,2,4-triazolo[4,3-b]-1,2,4-triazine, 7-(4'-chlorophenyl)] the ED50 ([1]; Rattus norvegicus) was 10 mg/kg and the inhibition in vivo at 200 mg/kg [1, 3] was 27%.

`Cc1nnc2nc(-c3ccccc3)cnn12` [Example 12, 1,2,4-triazolo[4,3-b]-1,2,4-triazine, 3-methyl-7-phenyl] gave an inhibition in vivo at 200 mg/kg [1, 3] of 70%.

With `c1ccc(-c2cnn3cnnc3n2)cc1` [Example 13, 1,2,4-triazolo[4,3-b]-1,2,4-triazine, 7-phenyl] the inhibition in vivo at 175 mg/kg ([1]; Rattus norvegicus, 175 mg/kg oral, 1 hour before carrageenin, edema at peak swelling time (3 hrs.), read-out: % Reduction of Edema) was 82%, the “Phenylquinone Writhing Assay (% Control), percent analgesia, 15 min.” value ([2]; 50 mg/kg oral) was 20% and the “Phenylquinone Writhing Assay (% Control), percent analgesia, 30 min.” value ([2]; 50 mg/kg oral) was 20%.

In the case of `FC(F)(F)c1nnc2nc(-c3ccccc3)cnn12` [Example 15, 1,2,4-triazolo[4,3-b]-1,2,4-triazine, 3-trifluoromethyl-7-phenyl], the inhibition in vivo at 200 mg/kg [1, 3] is reported as 30%.

For `c1ccc(-c2nc3nncn3nc2-c2ccccc2)cc1` [Example 22, 1,2,4-triazolo[4,3-b]-1,2,4-triazine, 6,7-diphenyl], the inhibition in vivo at 200 mg/kg [1, 3] was 32%.

`CC(C)c1nnc2nc(-c3ccccc3)c(-c3ccccc3)nn12` [Example 23, 1,2,4-triazolo[4,3-b]-1,2,4-triazine, 3-isopropyl-5,6-diphenyl] was tested, and the ED50 ([1]; Rattus norvegicus) was 30 mg/kg and the inhibition in vivo at 200 mg/kg [1, 3] was 37%.

`Cc1nc2nnc(C)n2nc1C` [Example 25, 1,2,4-triazolo[4,3-b]-1,2,4-triazine, 3,6,7-trimethyl] showed an inhibition in vivo at 200 mg/kg [1, 3] of 49%.

For `Cc1nnc2nc(-c3ccccc3Cl)cnn12` [Example 26, 1,2,4-triazolo[4,3-b]-1,2,4-triazine, 3-methyl-7-(2'-chlorophenyl)], the inhibition in vivo at 200 mg/kg [1, 3] was 56%.

With `Clc1cccc(-c2cnn3cnnc3n2)c1` [Example 28, 1,2,4-triazolo[4,3-b]-1,2,4-triazine, 7-(3'-chlorophenyl)] the inhibition in vivo at 200 mg/kg [1, 3] was 21%.

For `Clc1ccccc1-c1cnn2cnnc2n1` [Example 36, 1,2,4-triazolo[4,3-b]-1,2,4-triazine, 7-(2'-chlorophenyl)], the inhibition in vivo at 200 mg/kg [1, 3] was 65%.
